Active and inactive are the calls of the source.
Legend:
[1] = viability of uninfected HEp-2 cells – cell-based, HTS, cytotoxicity control for RSV inhibitor project, dose response (AID 2410); assay type: functional; settings: human respiratory syncytial virus
[2] = A cytotoxicity screen of small molecule inhibitors of the PhoP region in Salmonella typhi identified in the primary screen. [Related pubchem assays: 1850, 1864, 1985 ]; assay type: functional
[3] = molecular target: T1, Endoribonuclease toxin MazF (Escherichia coli K-12, UniProt P0AE70); experiment: activation of MazEF endoribonuclease cleavage – biochemical, fluorescence, single-stranded RNA substrate, uHTS hits, dose response (AID 588481); assay type: functional
T1 sequence (P0AE70 whole entry): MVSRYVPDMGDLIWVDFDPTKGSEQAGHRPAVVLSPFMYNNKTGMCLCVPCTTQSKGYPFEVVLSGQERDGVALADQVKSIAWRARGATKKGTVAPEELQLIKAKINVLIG

[4] = molecular target: T1, Endoribonuclease toxin MazF; experiment: substrate-only fluorescence increase artefacts – biochemical, single-stranded RNase substrate, counter-screen for MazEF activator project, dose response (AID 588502); assay type: functional
[5] = molecular target: T2, DNA repair protein RAD52 homolog (Homo sapiens, UniProt P43351); assay type: functional, biochemical
T2 sequence (P43351 whole entry): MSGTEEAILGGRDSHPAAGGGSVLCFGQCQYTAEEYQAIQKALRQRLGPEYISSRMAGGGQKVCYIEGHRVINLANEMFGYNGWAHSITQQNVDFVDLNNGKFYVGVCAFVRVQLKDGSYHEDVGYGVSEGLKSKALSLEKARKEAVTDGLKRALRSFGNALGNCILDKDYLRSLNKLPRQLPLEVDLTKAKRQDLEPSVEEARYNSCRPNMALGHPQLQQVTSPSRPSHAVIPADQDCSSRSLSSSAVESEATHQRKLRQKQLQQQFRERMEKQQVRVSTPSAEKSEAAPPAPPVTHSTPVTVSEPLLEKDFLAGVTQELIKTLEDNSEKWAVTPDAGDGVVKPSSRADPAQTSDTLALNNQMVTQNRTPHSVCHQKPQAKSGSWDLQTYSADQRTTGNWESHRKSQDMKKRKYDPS

[6] = molecular target: 26S proteasome non-ATPase regulatory subunit 14 (Homo sapiens, UniProt O00487); experiment: inhibition of proteasome subunit RPN11 – biochemical, fluorescence polarization, uHTS hits, confirmation (AID 602368); assay type: functional
26S proteasome non-ATPase regulatory subunit 14, sequence (O00487 whole entry): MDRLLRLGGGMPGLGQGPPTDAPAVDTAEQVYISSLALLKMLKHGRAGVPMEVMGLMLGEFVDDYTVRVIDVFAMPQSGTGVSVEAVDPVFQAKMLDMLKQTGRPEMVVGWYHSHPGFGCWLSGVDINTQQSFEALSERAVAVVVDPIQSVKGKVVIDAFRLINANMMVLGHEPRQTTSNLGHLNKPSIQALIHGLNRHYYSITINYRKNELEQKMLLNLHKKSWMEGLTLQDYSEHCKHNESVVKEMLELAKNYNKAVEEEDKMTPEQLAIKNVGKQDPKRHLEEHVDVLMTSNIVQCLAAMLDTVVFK

Prothrombin = Prothrombin (Bos taurus, UniProt P00735); experiment: thrombin protease inhibitors – biochemical, fluorescence polarization, uHTS hits, dose response (AID 602369); assay type: functional
[7] = molecular target: 72 kDa type IV collagenase (Homo sapiens, UniProt P08253); experiment: Dose Response validation of uHTS RPN11 inhibitor hits using a MMP-2 Fluorescence assay.; assay type: functional
72 kDa type IV collagenase, sequence (P08253 whole entry): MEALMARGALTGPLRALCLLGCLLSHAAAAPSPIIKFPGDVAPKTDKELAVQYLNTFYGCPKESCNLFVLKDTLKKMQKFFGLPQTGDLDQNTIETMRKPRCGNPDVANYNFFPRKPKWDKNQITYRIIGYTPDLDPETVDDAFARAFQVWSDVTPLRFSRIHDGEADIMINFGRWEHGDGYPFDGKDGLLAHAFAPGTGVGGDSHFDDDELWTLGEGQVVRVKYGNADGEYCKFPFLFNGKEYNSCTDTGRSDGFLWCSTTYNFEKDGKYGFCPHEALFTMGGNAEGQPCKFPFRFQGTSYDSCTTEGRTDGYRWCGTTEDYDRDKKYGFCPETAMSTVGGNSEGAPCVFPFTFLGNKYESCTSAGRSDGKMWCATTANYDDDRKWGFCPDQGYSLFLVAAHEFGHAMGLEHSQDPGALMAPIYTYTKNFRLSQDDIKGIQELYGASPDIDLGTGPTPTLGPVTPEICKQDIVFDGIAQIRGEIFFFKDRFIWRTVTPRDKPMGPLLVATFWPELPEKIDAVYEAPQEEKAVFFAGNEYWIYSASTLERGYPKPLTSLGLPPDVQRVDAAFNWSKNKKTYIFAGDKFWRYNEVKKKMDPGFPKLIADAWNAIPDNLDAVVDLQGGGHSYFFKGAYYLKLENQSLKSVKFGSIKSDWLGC

Cytochrome P450 3A4 = Cytochrome P450 3A4 (Homo sapiens, UniProt P08684); settings: Potency;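 note: confirmatory qHTS run detecting inhibitors and substrates of CYP3A4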
Cytochrome P450 3A4, sequence (P08684 whole entry): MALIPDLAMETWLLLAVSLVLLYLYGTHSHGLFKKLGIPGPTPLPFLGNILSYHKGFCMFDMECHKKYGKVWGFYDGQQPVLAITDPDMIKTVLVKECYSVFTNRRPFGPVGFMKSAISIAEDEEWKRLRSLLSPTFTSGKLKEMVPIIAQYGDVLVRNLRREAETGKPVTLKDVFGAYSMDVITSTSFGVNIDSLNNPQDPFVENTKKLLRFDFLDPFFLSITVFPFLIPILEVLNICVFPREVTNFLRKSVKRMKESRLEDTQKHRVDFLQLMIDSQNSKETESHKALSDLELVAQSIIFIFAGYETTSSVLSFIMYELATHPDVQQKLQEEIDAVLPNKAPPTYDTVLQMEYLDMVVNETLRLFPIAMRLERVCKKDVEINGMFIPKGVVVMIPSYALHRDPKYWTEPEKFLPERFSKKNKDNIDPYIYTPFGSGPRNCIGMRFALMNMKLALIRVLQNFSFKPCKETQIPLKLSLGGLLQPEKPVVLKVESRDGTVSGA

[8] = molecular target: T3, Type-1 angiotensin II receptor (Homo sapiens, UniProt P30556); experiment: antagonism of angiotensin II type 1 receptor – cell-based, uHTS hits, selectivity assay for APJ receptor antagonist project, dose response (AID 463214); assay type: functional;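 note: antagonist potency against angiotensin II stimulated AT1 response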
T3 sequence (P30556 whole entry): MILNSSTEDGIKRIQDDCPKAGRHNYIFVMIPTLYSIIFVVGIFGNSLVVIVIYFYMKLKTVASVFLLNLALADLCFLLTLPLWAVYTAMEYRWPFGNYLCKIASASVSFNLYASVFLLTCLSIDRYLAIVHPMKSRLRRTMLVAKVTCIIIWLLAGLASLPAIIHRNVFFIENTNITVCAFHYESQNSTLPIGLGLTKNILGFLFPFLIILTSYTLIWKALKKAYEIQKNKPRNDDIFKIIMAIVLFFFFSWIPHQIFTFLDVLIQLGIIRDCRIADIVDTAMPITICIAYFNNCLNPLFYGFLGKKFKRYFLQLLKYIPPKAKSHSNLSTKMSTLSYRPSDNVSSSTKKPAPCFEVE

Beta-galactosidase = Beta-galactosidase (Escherichia coli, UniProt Q8VNN2); experiment: PubChem AID 485352; assay type: functional
Beta-galactosidase, sequence (Q8VNN2 whole entry): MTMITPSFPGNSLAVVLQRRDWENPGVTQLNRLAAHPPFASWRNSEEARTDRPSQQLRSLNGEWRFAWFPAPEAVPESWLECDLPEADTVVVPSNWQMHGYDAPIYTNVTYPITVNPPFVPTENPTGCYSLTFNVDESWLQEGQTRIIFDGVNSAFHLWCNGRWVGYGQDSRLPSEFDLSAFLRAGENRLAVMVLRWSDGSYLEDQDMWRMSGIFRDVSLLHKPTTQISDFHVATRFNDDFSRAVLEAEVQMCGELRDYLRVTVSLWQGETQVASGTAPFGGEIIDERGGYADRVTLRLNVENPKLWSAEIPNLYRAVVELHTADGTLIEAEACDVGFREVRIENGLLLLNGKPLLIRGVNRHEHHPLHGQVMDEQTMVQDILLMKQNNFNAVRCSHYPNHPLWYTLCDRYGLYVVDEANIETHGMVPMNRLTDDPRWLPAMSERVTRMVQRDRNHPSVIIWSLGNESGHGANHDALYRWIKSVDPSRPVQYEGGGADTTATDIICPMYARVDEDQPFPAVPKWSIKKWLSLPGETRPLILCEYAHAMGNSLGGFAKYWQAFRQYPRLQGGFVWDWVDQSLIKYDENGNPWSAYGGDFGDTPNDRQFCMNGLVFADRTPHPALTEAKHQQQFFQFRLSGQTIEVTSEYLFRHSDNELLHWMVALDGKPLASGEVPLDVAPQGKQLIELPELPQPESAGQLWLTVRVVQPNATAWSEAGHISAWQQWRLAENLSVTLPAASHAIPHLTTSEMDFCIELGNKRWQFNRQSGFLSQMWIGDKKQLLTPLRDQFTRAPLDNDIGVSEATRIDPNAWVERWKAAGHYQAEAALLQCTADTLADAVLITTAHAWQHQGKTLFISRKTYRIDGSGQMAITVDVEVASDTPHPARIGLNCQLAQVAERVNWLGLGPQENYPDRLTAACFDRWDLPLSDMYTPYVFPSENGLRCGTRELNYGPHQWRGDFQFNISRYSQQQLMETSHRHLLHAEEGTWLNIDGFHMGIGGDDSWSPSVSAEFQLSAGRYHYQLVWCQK

[9] = fluconazole-exposed Candida albicans growth modulators – fluorescence, retest, confirmation (AID 2467); assay type: functional, cell-based
[10] = NIH-3T3 fibroblast cytotoxicity, dose response, cytotoxicity control, cell-based, fluorescence, Alamar Blue, secondary assay (AID 2327); assay type: functional;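 note: NIH-3T3 mouse fibroblasts cultured with fluconazole at 8 µg/mL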
[11] = microbe, parasite or virus in culture; assay type: functional; settings: Mycobacterium tuberculosis
[12] = molecular target: Voltage-dependent T-type calcium channel subunit alpha-1H (Homo sapiens, UniProt O95180); assay type: functional;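 note: channel activity triggered by adding a high calcium stimulation buffer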
Voltage-dependent T-type calcium channel subunit alpha-1H, sequence (O95180 whole entry): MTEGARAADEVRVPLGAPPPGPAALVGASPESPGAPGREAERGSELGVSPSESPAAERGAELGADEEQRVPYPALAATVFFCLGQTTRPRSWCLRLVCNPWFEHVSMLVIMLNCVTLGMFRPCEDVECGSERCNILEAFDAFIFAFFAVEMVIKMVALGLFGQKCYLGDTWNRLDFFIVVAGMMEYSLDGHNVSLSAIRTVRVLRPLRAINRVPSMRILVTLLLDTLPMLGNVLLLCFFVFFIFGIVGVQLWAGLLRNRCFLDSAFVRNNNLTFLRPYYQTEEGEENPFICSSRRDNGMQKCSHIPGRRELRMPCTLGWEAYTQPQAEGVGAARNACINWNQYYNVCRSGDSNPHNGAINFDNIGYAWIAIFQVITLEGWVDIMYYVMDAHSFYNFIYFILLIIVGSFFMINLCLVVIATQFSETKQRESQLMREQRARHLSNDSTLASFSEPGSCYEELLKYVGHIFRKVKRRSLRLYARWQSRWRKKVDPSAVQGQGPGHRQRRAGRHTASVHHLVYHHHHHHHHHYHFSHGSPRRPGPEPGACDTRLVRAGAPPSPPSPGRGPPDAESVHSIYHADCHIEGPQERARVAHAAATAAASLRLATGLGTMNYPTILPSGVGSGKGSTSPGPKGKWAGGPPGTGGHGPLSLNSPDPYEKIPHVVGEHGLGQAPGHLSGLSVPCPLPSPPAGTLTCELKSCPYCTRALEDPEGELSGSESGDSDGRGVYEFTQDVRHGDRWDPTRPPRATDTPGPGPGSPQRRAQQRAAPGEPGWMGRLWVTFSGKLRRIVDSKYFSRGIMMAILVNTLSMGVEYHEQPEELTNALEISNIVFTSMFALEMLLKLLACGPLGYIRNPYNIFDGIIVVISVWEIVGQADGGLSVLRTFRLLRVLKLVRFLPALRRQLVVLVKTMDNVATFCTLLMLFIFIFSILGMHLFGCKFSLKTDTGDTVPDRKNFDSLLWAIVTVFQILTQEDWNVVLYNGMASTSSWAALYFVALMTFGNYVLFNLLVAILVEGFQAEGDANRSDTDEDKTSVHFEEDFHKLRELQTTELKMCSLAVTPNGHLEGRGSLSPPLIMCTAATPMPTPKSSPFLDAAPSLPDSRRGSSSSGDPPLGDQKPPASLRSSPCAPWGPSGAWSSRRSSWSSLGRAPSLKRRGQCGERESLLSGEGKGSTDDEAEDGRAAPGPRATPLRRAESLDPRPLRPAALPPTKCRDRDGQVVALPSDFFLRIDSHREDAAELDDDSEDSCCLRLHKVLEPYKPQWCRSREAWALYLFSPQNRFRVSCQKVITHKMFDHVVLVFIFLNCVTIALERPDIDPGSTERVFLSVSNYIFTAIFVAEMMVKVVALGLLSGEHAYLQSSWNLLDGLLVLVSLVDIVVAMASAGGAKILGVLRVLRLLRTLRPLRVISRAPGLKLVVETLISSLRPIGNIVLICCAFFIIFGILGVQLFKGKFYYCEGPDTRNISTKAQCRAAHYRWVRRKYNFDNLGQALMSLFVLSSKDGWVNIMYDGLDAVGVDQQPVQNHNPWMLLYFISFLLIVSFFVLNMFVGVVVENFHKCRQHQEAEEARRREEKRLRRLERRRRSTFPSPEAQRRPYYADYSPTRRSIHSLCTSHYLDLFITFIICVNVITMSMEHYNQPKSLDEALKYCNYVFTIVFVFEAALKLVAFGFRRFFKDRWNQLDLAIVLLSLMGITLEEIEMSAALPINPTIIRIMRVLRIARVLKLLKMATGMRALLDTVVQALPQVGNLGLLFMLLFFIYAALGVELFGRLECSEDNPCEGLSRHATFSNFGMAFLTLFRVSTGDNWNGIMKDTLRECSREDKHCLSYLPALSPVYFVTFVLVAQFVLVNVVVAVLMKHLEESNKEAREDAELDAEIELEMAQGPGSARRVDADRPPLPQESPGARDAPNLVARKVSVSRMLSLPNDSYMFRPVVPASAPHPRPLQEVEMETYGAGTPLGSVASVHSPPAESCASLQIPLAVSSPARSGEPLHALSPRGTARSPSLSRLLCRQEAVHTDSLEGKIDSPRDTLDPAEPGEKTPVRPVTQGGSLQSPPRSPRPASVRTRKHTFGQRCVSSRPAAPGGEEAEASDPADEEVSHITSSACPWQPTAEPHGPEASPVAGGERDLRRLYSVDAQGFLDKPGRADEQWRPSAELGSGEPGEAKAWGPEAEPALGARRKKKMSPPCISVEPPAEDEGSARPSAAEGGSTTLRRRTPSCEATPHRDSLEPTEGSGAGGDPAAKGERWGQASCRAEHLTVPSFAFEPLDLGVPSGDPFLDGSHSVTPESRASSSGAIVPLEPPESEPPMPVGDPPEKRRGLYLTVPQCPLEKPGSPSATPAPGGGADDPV

P388 = experiment: cells; assay type: functional; settings: Mus musculus
SN12K1 = experiment: cells; assay type: functional; settings: Homo sapiens
P388/ADR = experiment: cells; assay type: functional; settings: Mus musculus
Streptococcus = experiment: GAS UMAA2166 growth inhibition – luminescence, BacTiterGlo, counter-screen for streptokinase expression inhibitor project, dose response (AID 1915); assay type: functional, organism-based;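 note: potency for reduction of bacterial viability or growth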
[13] = system: Streptococcus sp. 'group A'; experiment: Streptococcus pyogenes SK(-)GAS viability under kanamycin – luminescence, BacTiterGlo, confirmation, counter-screen for streptokinase expression inhibitor project, dose response (AID 1900); assay type: functional, organism-based

## CC(=O)c1ccc(N2CCN(Cc3nc4ccccc4[nH]3)CC2)cc1
[1]
  CC50: > 50 µM (active)
cells
  IC50: 10.8 µM (active)

## COc1ccc(C)cc1NC(=O)C1CCN(S(=O)(=O)c2c(C)noc2C)CC1
[2]
  EC50: > 50 µM (active)

## NS(=O)(=O)c1ccc(CNC(=O)COc2ccc3c4c(c(=O)oc3c2)CCCC4)cc1
[3]
  EC50: > 99 µM (inactive)
[4]
  EC50: > 99 µM (inactive)

## C#CCN1C(=O)S/C(=C\c2ccc(N3CCOCC3)cc2C)C1=O
[3]
  EC50: > 99 µM (inactive)
[4]
  EC50: > 99 µM (inactive)

## Cc1cc(C)c2nc3nc(C)c(C)cc3c(N)c2c1
[5]
  AC50: 1.56 µM (active)

## CCN(CC)CCOC(=O)c1ccc(NC=C2C(=O)NC(=O)NC2=O)cc1
[6]
  IC50: 22.4 µM (active)
Prothrombin
  IC50: 32.4 µM (active)
[7]
  IC50: > 100 µM (inactive)

## CC(=O)OCC1OC(C#CCC2CCCCC2)C=CC1OC(C)=O (stereo not given)
Cytochrome P450 3A4
  AC50: 3.16 µM (inconclusive)

## CCc1ccccc1Nc1nc(N)nc(COC(=O)c2cccn2C)n1
[1]
  CC50: 17.3 µM (active)
cells
  IC50: 13 µM (active)

## Cc1cccc2c1N(CCCOc1ccccc1)C(=O)C2=O
[8]
  IC50: > 40 µM (not active)
Beta-galactosidase
  EC50: > 40 µM (inactive)

## Cc1ccc(C(=O)N/C(=C\c2ccc(C(C)C)cc2)C(=O)NCCCN2CCOCC2)cc1
cells
  IC50: 14.6 µM (active)

## Cc1ccc(C(=O)N/C(=C/c2ccc(-c3cc(C(F)(F)F)ccc3Cl)o2)C(=O)NCc2cccnc2)cc1
[9]
  EC50: > 38 µM (not active)
[10]
  EC50: 21.4 µM (active)
[11]
  CC50: > 40 µM (active)

## O=[N+]([O-])c1cc(C(F)(F)F)ccc1NCC1CCCO1 (stereo not given)
[3]
  EC50: > 99 µM (inactive)
[4]
  EC50: > 99 µM (inactive)

## COc1ccc(N(C(=O)Cn2cnc3ccccc32)C(C(=O)NC2CCCCC2)c2ccccc2)cc1 (stereo not given)
[12]
  EC50: 4.82 µM (active)

## O=C(/C=C/c1ccc(Cl)cc1)c1cccs1
Cytochrome P450 3A4
  AC50: 25.1 µM (inconclusive)

## CC(Nc1cccc2ccccc12)C(=O)N/N=C/c1ccc([N+](=O)[O-])cc1 (stereo not given)
[1]
  CC50: 21.8 µM (active)
cells
  IC50: 22.1 µM (active)

## Clc1ccc2c(NCc3ccccn3)ccnc2c1
[2]
  EC50: > 50 µM (active)

## CCC1(c2ccc(N)cc2)CCC(=O)NC1=O (stereo not given) [AMINOGLUTETHIMIDE]
P388
  GI50: 2390 µM (inactive)
SN12K1
  GI50: 1690 µM (inactive)
Cytochrome P450 3A4
  AC50: 31.6 µM (inconclusive)
P388/ADR
  GI50: 1610 µM (inactive)

## O=C(O)c1cc(O)c2c(c1)C(=O)c1cc(O)cc(O)c1C2=O [EMODIC ACID]
Cytochrome P450 3A4
  AC50: 15.8 µM (inconclusive)

## CC(C)=CCc1c2c(c3occ(-c4ccc(O)cc4)c(=O)c3c1O)C=CC(C)(C)O2 [OSAJIN]
Streptococcus
  EC50: 1.47 µM (active)
Cytochrome P450 3A4
  AC50: 25.1 µM (inconclusive)
[13]
  EC50: 1.11 µM (active)

Reference: ChEMBL document CHEMBL1201862, “PubChem BioAssay data set” (2004)
